In brackets after ≈: the same amount, converted by molar mass. Where two headings read alike, the source gives them in different places.
Assays:
CHIKV = CHIKV cytopathic effect (CPE) inhibition test; assay type: cell-based, Chikungunya virus (CHIKV, strain Nic); conditions: for EC50: Chikungunya virus, 120 h, read-out: Antiviral Activity, EC50 ± SD, CHIKV; for Activity against CHIKV (in words): concentrations studied up to 100 μM
SARS-CoV-2 = SARS-CoV-2 cytopathic effect (CPE) inhibition test; assay type: cell-based, strain PIK35; conditions: for EC50: Severe acute respiratory syndrome coronavirus 2, 120 h, CPE inhibition in Vero cells, 5 days, M ± SD, read-out: Antiviral Activity, EC50 ± SD, SARS-CoV-2; for Activity against SARS-CoV-2 (in words): concentrations studied up to 100 μM
From the text: (§1) The green monkey kidney (Vero) cell line originated from WHO Biologicals, Switzerland (10–87), and the Madin-Darby canine kidney (MDCK) cell line was obtained from the American Type Culture Collection (ATCC CCL-34).
(§2) Viruses and strains used in the present work were severe acute respiratory syndrome-related coronavirus 2 (SARS-CoV-2, strain PIK35, GISAID EPI_ISL_428852), Chikungunya virus (CHIKV, strain Nic, GenBank IDs MN271691-2) and influenza A virus (H1N1, strain A/PR/8/34, ATCC VR-95).
The procedure was described previously. In brief, two-fold dilutions of the compounds were prepared in Dulbecco MEM (Chumakov FSC R&D IBP RAS, Russia) and mixed 1:1 with a virus suspension containing 50–200 TCID50 and incubated for 1 h at 37 °C in a CO2 incubator. The final concentration series started from 100 μM. Then, compound-virus mixtures were added to confluent Vero cell monolayers in 2 replicates. After incubation at 37 °C in a CO2-incubator for 5 days, CPE signs (cell death) were assessed via microscope, and 50% effective concentration (EC50) (compound concentration required to decrease CPE by 50%) was calculated using the Karber method.

IAV = IAV virus yield reduction assay; assay type: cell-based, influenza A virus (H1N1, strain A/PR/8/34); conditions: Influenza A virus; virus yield reduction in MDCK cells, MOI 1, 24 h, M ± SD; read-out: Antiviral Activity, EC50 ± SD, IAV
From the text: as §1, §2
Compound solutions were prepared in DMSO (20 mg/mL). The compounds were weighed in 2 mg amounts and dissolved in 100 μL of DMSO. Then, a series of 3-fold dilutions was prepared, starting from 300 µg/mL, in a cultural medium. The MDCK cell monolayer was treated with compound dilutions and incubated for 1 h in a CO2 incubator at 37 °C. Untreated cells were used as negative control. Afterward, the virus was added (MOI 1), and cells were incubated for 24 h at 37 °C in a CO2 incubator. After incubation, the culture medium was collected, and viral yields were determined by titration. In brief, a series of 10-fold dilutions (10^−7–10^−1) of viral supernatants were prepared in a cultural medium and applied to daily MDCK cell monolayers. Infected cells were incubated for 72 h at 37 °C in a CO2 incubator. The presence of the virus in the culture supernatants was determined using the hemagglutination assay with a 1% suspension of chicken erythrocytes. Viral titer was calculated according to the Reed-and-Muench method and was expressed as 50% tissue infectious doses (TID50) per 100 μL of volume. Inhibition (%) was calculated by comparison with non-treated cells, and EC50 was calculated from inhibitory curves.

[1] = Cell viability assay in Vero cells (resazurin); assay type: cell-based; conditions: green monkey, 5 d, read-out: Cytotoxicity, CC50 ± SD, Vero
Method: as §1
Two-fold dilutions of the compounds (starting from 100 μM) were prepared in DMEM (Chumakov FSC R&D IBP RAS, Russia) and added to confluent cell monolayers. After 5 days of incubation (37 °C, 5% CO2), the cultural supernatant was substituted with a resazurin solution (25 μg/mL), followed by 4 h incubation (37 °C, 5% CO2). Then, 20 µL of 10% SDS were added to stop the reaction. Fluorescence intensity was measured with Promega GloMax-Multi Detection System (Ex525/Em580–640). Cells treated with dilutions of the compounds and DMSO, but not resazurin, were used to subtract the background fluorescence. All experimental procedures were performed in two replicates. Fluorescence curves were analyzed with Microsoft Excel 2013. 50% Cytotoxic concentrations (CC50) were calculated.

[2] = Cell viability assay in MDCK cells (MTT); assay type: cell-based, canine; conditions: dog, read-out: Cytotoxicity, CC50 ± SD, MDCK
Method: as §1
Compound solutions were prepared in DMSO (20 mg/mL), and then 2-fold dilutions in cultural medium were prepared starting from 1000 μg/mL. One-day MDCK cell monolayers (over 95% confluency) in 96-well plates ([…]) were washed twice with serum-free alpha-MEM (Thermo-Fisher Scientific, USA) and treated with 100 μL of compound dilutions in 2 replicates. The plates were then incubated for 24 h at 37 °C in a CO2 incubator. Cell viability was assessed using the tetrazolium test (MTT, ApplyChem). Optical density was measured on a Wallac 1420 Victor2 microplate reader (Perkin Elmer, Ramsey, MN, USA) at 535 nm, then CC50 values were calculated.

[3] = Solubility in water (photometry); assay type: physicochemical; conditions: for solubility at 30 min: thermodynamic from solid
Method: The samples were dissolved in DMSO, diluted in series, and photometrically analyzed. The average molar absorption coefficient was calculated from the obtained optical densities of calibration solutions at the absorption maxima. Solubility values were determined as previously described by adding weighed amounts of compounds to distilled water followed by sonication (30 min), centrifugation (12,000 rpm, 10 min), and photometry.

[4] = system: influenza A/California/7/09/MA virus; assay type: in vivo, BALB/c mice
[5] = distilled water, sonication, centrifugation, photometry

Work on `c1cc2cccc3c4ccc(-c5cn(CCN6CCOCC6)nn5)c5cccc(c(c1)c23)c54` [Compound 2a, 4-(2-(4-(Perylen-3-yl)-1H-1,2,3-triazol-1-yl)ethyl)morpholine] yielded an EC50 (CHIKV; Vero) of 0.47 ± 0.16 µM, an EC50 (SARS-CoV-2) of 11.3 ± 1.8 µM and an EC50 (IAV) of 20.6 ± 8 µM. For the same compound, the CC50 at 5 days [1] was over 100 µM and the CC50 at 24 h [2] was over 100 µM.
With `c1cc2cccc3c4ccc(-c5cn(CCCN6CCOCC6)nn5)c5cccc(c(c1)c23)c54` [Compound 2b, 4-(3-(4-(Perylen-3-yl)-1H-1,2,3-triazol-1-yl)propyl)morpholine] the EC50 (CHIKV; Vero) was over 100 µM, the “Activity against CHIKV (in words)” value (CHIKV) was “did not demonstrate any activity” and the EC50 (SARS-CoV-2) was over 100 µM. For the same compound, the “Activity against SARS-CoV-2 (in words)” value (SARS-CoV-2) was “did not demonstrate any activity”, the EC50 (IAV) was 62 ± 22 µM and the CC50 at 5 days [1] was over 100 µM. For the same compound, the CC50 at 24 h [2] was over 100 µM.
With `C[N+]1(CCn2cc(-c3ccc4c5cccc6cccc(c7cccc3c74)c65)nn2)CCOCC1.[I-]` [Compound 3a, 4-Methyl-4-(2-(4-(perylen-3-yl)-1H-1,2,3-triazol-1-yl)ethyl)morpholin-4-ium iodide] the EC50 (CHIKV; Vero) was 11.3 ± 9 µM, the EC50 (SARS-CoV-2) was 1.88 ± 0.88 µM and the EC50 (IAV) was 49 ± 19 µM. For the same compound, the CC50 at 5 days [1] was over 100 µM, the CC50 at 24 h [2] was over 100 µM and the solubility at 30 min [3, 5] was 3.4 mM.
With `C[N+]1(CCCn2cc(-c3ccc4c5cccc6cccc(c7cccc3c74)c65)nn2)CCOCC1.[I-]` [Compound 3b, 4-Methyl-4-(3-(4-(Perylen-3-yl)-1H-1,2,3-triazol-1-yl)propyl)morpholin-4-ium iodide] the EC50 (CHIKV; Vero) was 10.7 ± 2.6 µM, the “Activity against CHIKV (in words)” value (CHIKV) was “had activity” and the EC50 (SARS-CoV-2) was 9.2 ± 4.3 µM. For the same compound, the “Activity against SARS-CoV-2 (in words)” value (SARS-CoV-2) was “had activity”, the EC50 (IAV) was over 100 µM and the CC50 at 5 days [1] was over 100 µM. It also gave a CC50 at 24 h [2] of over 100 µM and a solubility at 30 min [3, 5] of 5 mM.
For `CC(C)[Si]1(C(C)C)OC[C@H]2O[C@@H](n3cc(C#Cc4ccc5c6cccc7cccc(c8cccc4c85)c76)c(=O)[nH]c3=O)[C@H](O)[C@@H]2O[Si](C(C)C)(C(C)C)O1` [Compound 5, 3′,5′-O-(Tetraisopropyldisiloxan-1,3-diyl)-5-(perylen-3-ylethynyl)uridine], the EC50 (CHIKV; Vero) was 1.17 ± 0.55 µM, the EC50 (SARS-CoV-2) was over 100 µM and the “Activity against SARS-CoV-2 (in words)” value (SARS-CoV-2) was “did not demonstrate any activity”. For the same compound, the CC50 at 5 days [1] was over 100 µM.
For `CC(C)[C@H](NC(=O)OC(C)(C)C)C(=O)O[C@@H]1[C@@H]2O[Si](C(C)C)(C(C)C)O[Si](C(C)C)(C(C)C)OC[C@H]2O[C@H]1n1cc(C#Cc2ccc3c4cccc5cccc(c6cccc2c63)c54)c(=O)[nH]c1=O` [Compound 6, 2′-O-(N-Boc-L-valinyl)-3′,5′-O-(tetraisopropyldisiloxane-1,3-diyl)-5-(perylen-3-ylethynyl)uridine], the EC50 (CHIKV; Vero) was over 100 µM, the “Activity against CHIKV (in words)” value (CHIKV) was “did not demonstrate any activity” and the EC50 (SARS-CoV-2) was over 100 µM. For the same compound, the “Activity against SARS-CoV-2 (in words)” value (SARS-CoV-2) was “did not demonstrate any activity”, the EC50 (IAV) was 31 ± 10 µM and the CC50 at 5 days [1] was over 100 µM. The CC50 at 24 h [2] was over 100 µM.
Compound `CC(C)[C@H](NC(=O)OC(C)(C)C)C(=O)O[C@@H]1[C@H](O)[C@@H](CO)O[C@H]1n1cc(C#Cc2ccc3c4cccc5cccc(c6cccc2c63)c54)c(=O)[nH]c1=O` [Compound 7, 2′-O-(N-Boc-L-valinyl)-5-(perylen-3-ylethynyl)uridine] has an EC50 (CHIKV; Vero) of under 0.016 µM, an EC50 (SARS-CoV-2) of 0.075 ± 0.018 µM and an EC50 (IAV) of 4.6 ± 1 µM. The CC50 at 5 days [1] was 98 ± 17 µM and the CC50 at 24 h [2] was 62 ± 24 µM.
With `CC(C)[C@H](N)C(=O)O[C@@H]1[C@H](O)[C@@H](CO)O[C@H]1n1cc(C#Cc2ccc3c4cccc5cccc(c6cccc2c63)c54)c(=O)[nH]c1=O` [Compound 8, 2′-O-L-Valinyl-5-(perylen-3-ylethynyl)uridine] the EC50 (CHIKV; Vero) was 0.55 ± 0.33 µM, the EC50 (SARS-CoV-2) was 1.28 ± 0.4 µM and the EC50 (IAV) was 3.8 ± 1.3 µM. The CC50 at 5 days [1] was over 100 µM, the CC50 at 24 h [2] was over 100 µM and the “Solubility in water (in words)” value [3] was “poor”. The solubility at 30 min [3, 5] was 0.1 mM (≈ 61.8 µg/mL).
`O=c1nc(NO)ccn1[C@@H]1O[C@H](CO)[C@@H](O)[C@H]1O` [NHC, N^4-hydroxycytidine, reference compound] showed an EC50 (CHIKV; CPE inhibition in Vero cells, 5 days, M ± SD) of 9.7 µM, an EC50 (SARS-CoV-2) of 7.4 µM and a CC50 at 5 days [1] of over 100 µM.
With `CCOC(=O)C1=C[C@@H](OC(CC)CC)[C@H](NC(C)=O)[C@@H](N)C1` [Tamiflu, Oseltamivir phosphate, reference compound] the EC50 (IAV) was 0.02 µM, the CC50 at 24 h [2] was over 100 µM and the “Average Life Expectancy (M ± SEM)” value ([4]; 20 mg/kg intragastric, BALB/c mice) was 11.4 ± 1.1 days. The “Protective Index (PI)” value ([4]; 20 mg/kg intragastric, […]) was 56%, the “Mortality Rate” value ([4]; mouse, in vivo) was 40% and the “Reduction in body weight (maximum)” value ([4]; mouse, in vivo) was 24.0%.
With `O=c1[nH]c(=O)n([C@@H]2O[C@H](CO)[C@@H](O)[C@@H]2O)cc1C#Cc1ccc2c3cccc4cccc(c5cccc1c52)c43` [aUY11, 5-(Perylen-3-yl)ethynyl-arabino-uridine, reference compound] the “Solubility in water (in words)” value [3] was “no solubility” and the “Solubility in Water” value [3, 5] was “insoluble”.

Reference: article PMC9610897, “Cationic Perylene Antivirals with Aqueous Solubility for Studies In Vivo” (Pharmaceuticals, 2022)
